The source made the active and inactive calls. No cut-off for these calls is given here.
Tests used:
Danio rerio [1] = species on record: Danio rerio; assay: Anti-osteoporosis activity in FAC-induced skeletal injury Zebrafish larvae assessed as reduction in bone damage measured for 10 day post fertilization by Alizarin red staining based assay; type: functional, Larva; parameters: scale not given: the % may be the effect or the level left
Danio rerio [2] = species on record: Danio rerio; assay: Anti-osteoporosis activity in FAC-induced skeletal injury Zebrafish larvae assessed as increase in BGP mRNA expression level measured for 10 day post fertilization by semiquantitative-PCR analysis; type: functional, organism-based; conditions: Larva
Osteoblast [3] = assay: Induction of osteoblast differentiation in transgenic osx mCherry Zebrafish embryo assessed as increase in sp7 mRNA expression in distal fin rays at 0.1 % measured after 6 days by ISH analysis; type: functional; conditions: Danio rerio, time 6.0 day
[4] = Induction of Zebrafish embryo skeletal development assessed as mortality rate of embryo at 0.3 % measured after 72 hrs post fertilization by Alcian blue staining based assay; type: functional, Danio rerio
Danio rerio [5] = species on record: Danio rerio; assay: Induction of Zebrafish embryo skeletal development assessed as upregulation of col10a1a gene expression in palatoquadrate at 0.01 to 0.3 % measured after 72 hrs post fertilization by […] analysis; type: functional, tissue-based; conditions: dose 0.01-0.3 %
Danio rerio [6] = species on record: Danio rerio; assay: Induction of Zebrafish embryo skeletal development assessed as increase in Bmp2b mRNA expression level in head at 0.1 to 0.3 % measured at 24 hrs post fertilization by ISH analysis; type: functional, tissue-based; conditions: dose 0.1-0.3 %
Danio rerio [7] = species on record: Danio rerio; assay: Induction of Zebrafish embryo skeletal development assessed as increase in Bmp2b mRNA expression level expanded from ventral side to dorsal side at 0.1 to 0.3 % measured at 24 hrs post fertilization by ISH analysis; type: functional, tissue-based; conditions: dose 0.1-0.3 %
Danio rerio [8] = species on record: Danio rerio; assay: Anti-osteoporosis activity in FAC-induced skeletal injury Zebrafish assessed as increase in cumulative bone optical density in spine at 0.1 % measured for 10 day post fertilization; type: functional, organism-based
Danio rerio [9] = species on record: Danio rerio; assay: Induction of Zebrafish embryo skeletal development assessed as increase in gfp expression level in ventral head at 0.05 to 0.3 % measured at 24 to 72 hrs post fertilization by DAPI staining based analysis; type: functional, tissue-based; conditions: dose 0.05-0.3 %, time 24-72 hrs
[10] = Induction of Zebrafish embryo skeletal development assessed as ventralized embryos at 0.3 % measured at 24 hrs post fertilization relative to control; type: functional, Danio rerio
Osteoblast [11] = assay: Induction of osteoblast differentiation in transgenic osx mCherry Zebrafish embryo assessed as increase in Sox9b mRNA expression in fin at 0.1 % measured after 15 days by semiquantitative PCR analysis; type: functional, tissue-based; conditions: Danio rerio, time 15.0 day
Danio rerio [12] = species on record: Danio rerio; assay: Anti-osteoporosis activity in FAC-induced skeletal injury Zebrafish larvae assessed as increase in Col1a2 mRNA expression level measured for 10 day post fertilization by semiquantitative-PCR analysis; type: functional, organism-based; conditions: Larva
Danio rerio [13] = species on record: Danio rerio; assay: Induction of Zebrafish embryo skeletal development assessed as upregulation of […] gene expression in dent at 0.01 to 0.3 % measured after 72 hrs post fertilization by […] analysis; type: functional, tissue-based; conditions: dose 0.01-0.3 %
Danio rerio [14] = species on record: Danio rerio; assay: Induction of Zebrafish embryo skeletal development assessed as increase in Bmp4 mRNA expression level in head at 0.1 to 0.3 % measured at 24 hrs post fertilization by ISH analysis; type: functional, tissue-based; conditions: dose 0.1-0.3 %
Danio rerio [15] = species on record: Danio rerio; assay: Induction of Zebrafish embryo skeletal development assessed as increase in Bmp2b mRNA expression level in head at 0.1 % measured at 72 hrs post fertilization; type: functional, tissue-based
Danio rerio [16] = species on record: Danio rerio; assay: Suppression of Bmp signaling in Zebrafish embryo assessed as reduction in slight loss of tail tissue at 0.1 % measured at 26 hrs post fertilization in presence of dorsomorphin; type: functional; parameters: scale not given: the % may be the effect or the level left
Danio rerio [17] = species on record: Danio rerio; assay: Anti-osteoporosis activity in FAC-induced skeletal injury Zebrafish assessed as rescue of skeletal density in caudal fins at 0.1 % measured for 10 day post fertilization; type: functional, organism-based
[18] = Induction of Zebrafish Larva cartilage development assessed as increase in H3 phenotype ratio at 0.05 % measured after 5 days post fertilization by Alcian blue staining based assay; type: functional, Danio rerio; conditions: time 5 day
Danio rerio [19] = species on record: Danio rerio; assay: Induction of Zebrafish Larva caudal fin regeneration assessed as increase in bone mass measured for 15 days by Calcein staining based assay; type: functional; conditions: time 15.0 day
Danio rerio [20] = species on record: Danio rerio; assay: Induction of Zebrafish embryo skeletal development assessed as increase in Bmp2b mRNA expression level in bud region at 0.1 to 0.3 % measured at 24 hrs post fertilization by ISH analysis; type: functional, tissue-based; conditions: dose 0.1-0.3 %
Danio rerio [21] = species on record: Danio rerio; assay: Induction of Zebrafish embryo skeletal development assessed as increase in Bmp4 mRNA expression level in gastrula stage at 0.05 to 0.1 % measured at 24 hrs post fertilization by ISH analysis; type: functional, tissue-based; conditions: dose 0.05-0.1 %
[22] = Induction of Zebrafish Larva caudal fin regeneration measured for 15 days by Calcein staining based assay; type: functional, Danio rerio; conditions: time 15 day
Osteoblast [23] = assay: Induction of osteoblast differentiation in Zebrafish embryo assessed as upregulation of sox9b gene expression in head measured at 0.75 to 72 hrs post fertilization at 0.05 to 0.3 % by ELISA analysis; type: functional, tissue-based; conditions: Danio rerio, dose 0.05-0.3 %, time 0.75-72 hrs
Danio rerio [24] = species on record: Danio rerio; assay: Induction of Zebrafish embryo skeletal development assessed as upregulation of col10a1a gene expression in operculum at 0.01 to 0.3 % measured after 72 hrs post fertilization by […] analysis; type: functional; conditions: dose 0.01-0.3 %
[25] = Induction of Zebrafish embryo skeletal development assessed as mortality rate of embryo at 0.05 % measured after 72 hrs post fertilization by Alcian blue staining based assay; type: functional, Danio rerio
Danio rerio [26] = species on record: Danio rerio; assay: Anti-osteoporosis activity in FAC-induced skeletal injury Zebrafish larvae assessed as increase in Col10a1a mRNA expression level measured for 10 day post fertilization by semiquantitative-PCR analysis; type: functional, organism-based; conditions: Larva
[27] = Induction of Zebrafish Larva cartilage development assessed as increase in bone mineralization at 0.1 % measured at 6 days post fertilization by Alizarin red staining based assay; type: functional, Danio rerio; conditions: time 6 day
[28] = Induction of Zebrafish embryo skeletal development assessed as fatality rate measured at percentage concentration incubated after 72 hrs post fertilization by Alcian blue staining based assay; type: functional, Danio rerio
Danio rerio [29] = species on record: Danio rerio; assay: Suppression of Bmp signaling in Zebrafish embryos assessed as decrease in Sox9a gene expression level at 0.1 % measured at 26 hrs post fertilization by semiquantitative PCR analysis; type: functional, tissue-based; conditions: Embryo
Osteoblast [30] = assay: Induction of osteoblast differentiation in Zebrafish embryo assessed as upregulation of sox9a gene expression in head measured at 0.75 to 72 hrs post fertilization at 0.05 to 0.3 % by […] analysis; type: functional; conditions: Danio rerio, dose 0.05-0.3 %, time 0.75-72 hrs
Danio rerio [31] = species on record: Danio rerio; assay: Induction of Zebrafish embryo skeletal development assessed as Bmp2b localization in cytoplasm at 0.1 % measured at 24 to 72 hrs post fertilization; type: functional, tissue-based; conditions: time 24-72 hrs
[32] = Induction of Zebrafish embryo skeletal development assessed as mortality rate of embryo at 0.03 % measured after 72 hrs post fertilization by Alcian blue staining based assay; type: functional, Danio rerio
[33] = Induction of Zebrafish embryo skeletal development assessed as mortality rate of embryo at 0.5 % measured after 72 hrs post fertilization by Alcian blue staining based assay; type: functional, Danio rerio
Danio rerio [34] = species on record: Danio rerio; assay: Induction of Zebrafish embryo skeletal development assessed as increase in gfp expression level in tail at 0.05 to 0.3 % measured at 24 to 72 hrs post fertilization by DAPI staining based analysis; type: functional, tissue-based; conditions: dose 0.05-0.3 %, time 24-72 hrs
Danio rerio [35] = species on record: Danio rerio; assay: Induction of Zebrafish embryo skeletal development assessed as increase in Smad1 gene expression level in coccygeal vertebra at 0.1 % measured for 0.75 to 24 hrs post fertilization by ISH analysis; type: functional, tissue-based; conditions: time 0.75-24 hrs

For `Cl.N[C@@H]1[C@@H](O)[C@H](O)[C@@H](CO)O[C@H]1O`, the Activity (Danio rerio [1]) was 70%, the Activity (Danio rerio [2]) was “Active” and the Activity (Osteoblast [3]) was “Active”. For the same compound, the Activity [4] was 28%, the Activity (Danio rerio [5]) was “Active” and the Activity (Danio rerio [6]) was “Active”. For the same compound, the Activity (Danio rerio [7]) was “Active”, the Activity (Danio rerio [8]) was “Active” and the Activity (Danio rerio [9]) was “Active”. The Activity [10] was 20%, the Activity (Osteoblast [11]) was “Active” and the Activity (Danio rerio [12]) was “Active”. For the same compound, the Activity (Danio rerio [13]) was “Active”, the Activity (Danio rerio [14]) was “Active” and the Activity (Danio rerio [15]) was “Active”. For the same compound, the Activity (Danio rerio [16]) was 50%, the Activity (Danio rerio [17]) was “Active” and the Activity [18] was 40%. The Activity (Danio rerio [19]) was “Active”, the Activity (Danio rerio [20]) was “Active” and the Activity (Danio rerio [21]) was “Active”. The Activity [22] was 50%, the Activity (Osteoblast [23]) was “Active” and the Activity (Danio rerio [24]) was “Active”. For the same compound, the Activity [25] was 16%, the Activity (Danio rerio [26]) was “Active” and the Activity [27] was 88%. The IC50 [28] was 0.324%, the Activity (Danio rerio [29]) was “Active” and the Activity (Osteoblast [30]) was “Active”. For the same compound, the Activity (Danio rerio [31]) was “Active”, the Activity [32] was 16% and the Activity [33] was 100%. The Activity (Danio rerio [34]) was “Active” and the Activity (Danio rerio [35]) was “Active”.
